Laboratory results taken from US20110262564A1, “Treatment of Cancer with Selenium Nanoparticles” (priority 2010, published 2011).

Key:
[1] = molecular target: T1, androgen receptor (Homo sapiens, UniProt P10275); assay: pGL3-PSA-luc androgen receptor luciferase reporter assay in HEK293; format: cell-based; details: PSA promoter construct, HEK293, 10 nM
T1 construct: the full length human wild type androgen receptor cDNA expression plasmid pAR0; expressed in transfected cells; host or cells: HEK293
T1 sequence (P10275 1-920): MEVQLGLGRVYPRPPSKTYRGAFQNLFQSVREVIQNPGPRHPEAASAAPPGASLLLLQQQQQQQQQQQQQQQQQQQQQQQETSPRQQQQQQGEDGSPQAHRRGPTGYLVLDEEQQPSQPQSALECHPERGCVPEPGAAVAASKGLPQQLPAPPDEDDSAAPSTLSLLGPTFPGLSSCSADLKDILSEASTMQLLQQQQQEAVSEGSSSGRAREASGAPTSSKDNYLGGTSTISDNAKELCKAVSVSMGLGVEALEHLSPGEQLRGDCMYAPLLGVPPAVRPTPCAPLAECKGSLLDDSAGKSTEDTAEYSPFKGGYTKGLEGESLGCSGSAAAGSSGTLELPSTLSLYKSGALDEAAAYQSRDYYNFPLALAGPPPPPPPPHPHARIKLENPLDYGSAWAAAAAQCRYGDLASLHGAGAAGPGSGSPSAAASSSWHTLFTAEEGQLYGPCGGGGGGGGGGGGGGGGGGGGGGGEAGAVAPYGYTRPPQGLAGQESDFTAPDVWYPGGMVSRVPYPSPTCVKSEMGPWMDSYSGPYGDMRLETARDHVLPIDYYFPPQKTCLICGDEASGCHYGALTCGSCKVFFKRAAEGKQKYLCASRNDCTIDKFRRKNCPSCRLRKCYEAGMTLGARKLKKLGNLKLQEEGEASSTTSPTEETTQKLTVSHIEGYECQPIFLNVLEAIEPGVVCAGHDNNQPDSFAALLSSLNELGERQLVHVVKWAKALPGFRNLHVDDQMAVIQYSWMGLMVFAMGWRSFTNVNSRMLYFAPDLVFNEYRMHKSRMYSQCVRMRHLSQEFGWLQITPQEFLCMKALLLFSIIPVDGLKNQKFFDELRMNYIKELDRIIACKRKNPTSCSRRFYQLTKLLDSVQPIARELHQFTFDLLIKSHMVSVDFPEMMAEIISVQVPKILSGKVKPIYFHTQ
Procedure: (§1) Both MMTV-luc and pGL3-PSA-luc plasmids contain Androgen Receptor binding site which recruits androgen receptor and its co-activator to recruit RNA Pol II to the promoter region.
(§2) Cells were then lysed and assayed for luciferase activity using Dual-Luciferase® Reporter Assay System (Promega, Madison, Wis., USA), the experiment was performed in triplicate and repeated at least four times.

[2] = molecular target: T1, androgen receptor; assay: MMTV-luc androgen receptor luciferase reporter assay in HEK293; format: cell-based; details: MMTV promoter construct, HEK293, 10 nM
Procedure: as §1, §2

[3] = tested on: human lung carcinoma cell line A549 cells; assay: Cell viability assay, A549; format: cell-based
Procedure: (§3) For cell viability assay, cells were seeded into 96-well plates at a density of 1×10^4 cells/well, and 40-50% confluent cells were subsequently treated with nano-Se nanoparticles (1 to 100 μM) or distilled water for 24 or 48 hrs respectively. Treated cells were then collected and measured by Cell Counting Kit-8 (CCK-8) system (Dojindo Laboratory, Kumamoto, Japan). Briefly, CCK-8 solution (10 μl per 100 ul of medium in each well) was added, the plates were then incubated at 37° C. for 1 hour, and the absorbance of each well was read at 450 nm using a microplate reader. Values were shown as means±SE of quadruplicated determinations of a representative experiment (repeated three times). Differences between groups were analyzed using Student's test with significance assumed at p<0.05. All statistical analyses were performed using Origin75 software.
(§4) In reference to FIGS. 3A and 3B, 4A and 4B, 5A and 5B, 6A and 6B, the effects of nano-Se nanoparticles on cell viability are compared to that of MSA in androgen dependent prostate cancer line LNCaP cells, androgen independent prostate cancer line DU145 cells, human breast cancer cell line MCF-7 cells, human lung carcinoma cell line A549 cells.
(§5) Cells were treated with 0-100 μM nano-Se nanoparticles or MSA for 24 and 48 hours. […] Differences between groups were analyzed using Student's test with significance assumed at p<0.05.

[4] = tested on: androgen-independent DU145 cells; assay: CCK-8 cell viability assay, DU145; format: cell-based, human
Procedure: (§6) To determine the cell viability effect of nano-Se in human prostate cancer cells, androgen-dependent LNCaP cells and androgen-independent DU145 cells were treated with 0, 1, 5, 10, 50 and 100 μM of Nano-Se particle suspensions for 24 and 48 hrs respectively.
(§7) LNCaP (Lot#1735217), and DU-145 (Lot#1145858) human prostate cancer cell lines were purchased from the American Type Culture Collection (ATCC, Manassas, Va., USA). Cells were maintained in 1640 culture medium (Invitrogen Life Technologies, USA) supplemented with 10% (v/v) fetal bovine serum and antibiotics.
as §3
Cells were treated with 0-100 μM nano-Se nanoparticles or MSA for 24 and 48 hours. Cells were then collected and cell viabilities were assayed. The data shown are mean±standard of three samples for each treatment. Differences between groups were analyzed using Student's test with significance assumed at p<0.05.

[5] = tested on: androgen-dependent LNCaP cells; assay: CCK-8 cell viability assay, LNCaP; format: cell-based, human; details: 0-100 μM, 24 and 48 hours
Procedure: as §6, §7
as §3, with “All statistical analyses were performed using Origin75 software.” left out

[6] = tested on: human breast cancer cell line MCF-7 cells; assay: Cell viability assay, MCF-7; format: cell-based
Procedure: as §3, §4, §5

C[C@]1(O)CC[C@H]2[C@@H]3CCC4=CC(=O)CCC4=C3C=C[C@@]21C [R1881]
androgen receptor dependent promoter activity (luciferase) [1]: induced androgen receptor dependent promoter activity | androgen receptor dependent promoter activity (luciferase) [2]: induced androgen receptor dependent promoter activity

C[Se](=O)O [MSA, Methylseleninic acid]
effect on cell viability ([3]; A549, 0-100 μM, 24 and 48 hours, dose and time-dependent): decreased cell viability | potency in decreasing cell viability, MSA versus nano-Se ([3]; A549, 24 and 48 hours): more potent in decreasing cell viability | effect on cell viability ([4]; DU145, 0-100 μM, 24 and 48 hours, dose and time-dependent): decreased cell viability | effect on cell viability, MSA versus nano-Se ([4]; DU145, 24 hour treatment, all measured concentrations): more significant | effect on cell viability, nano-Se versus MSA ([4]; DU145, 48 hour treatment): comparable | effect on cell viability [5]: decreased cell viability | effect on cell viability ([6]; MCF-7, 0-100 μM, 24 and 48 hours, dose and time-dependent): decreased cell viability | potency in decreasing cell viability, MSA versus nano-Se ([6]; MCF-7, 24 and 48 hours): more potent in decreasing cell viability
